From patent US7935720B2, “Crystal of substituted phenylalkanoic acid ester and process for producing the same” (Asahi Kasei Pharma Corporation, priority 2006, dated 2011)

How the values were obtained:
prostaglandin production = conditions: reported in Patent Document 1; cited from earlier work
leukotriene production = conditions: reported in Patent Document 1; cited from earlier work
[1] = system: footpad edema in rat adjuvant arthritis; test: Prophylactic and therapeutic effect against rat adjuvant arthritis; format: in vivo; conditions: oral, 0.1 to 50 mg/0.2 ml/kg, suspended in 0.5% methylcellulose; compared with the positive control group
Description: For the compounds of the invention, a suppressive effect against footpad edema in rat adjuvant arthritis, which is a disease model for chronic rheumatoid arthritis as being one of autoimmune diseases and also a chronic inflammatory disease, was investigated according to the method of International Patent Publication No. WO 03/70686. The test compound was suspended in purified water containing 0.5% methylcellulose, and was orally administered to test animals at a dose of 0.1 to 50 mg/0.2 ml/kg.

[2] = Measurement of water content after filtration; format: physicochemical; conditions: wet crystals after filtration and dehydration; calculated from weight of wet crystals and weight after drying
Description: The respective water contents of the crystals obtained in Example 10 and Example 11 were calculated from the weight of the wet crystals and the weight of the crystals after drying.

[3] = Solubility test in Japanese Pharmacopoeia disintegration test fluids (HPLC); format: physicochemical; conditions: for Solubility to 1st fluid for disintegration test of Japanese Pharmacopoeia (pH 1.2) / Solubility to 2nd fluid for disintegration test of Japanese Pharmacopoeia (pH 6.8): shaken for 24 hours at 37° C.
Description: The type A crystals of compound 1 of the invention prepared according to Example 3, and the type B crystals of compound 1 of the invention prepared according to Example 4 were respectively weighed to 10 mg in a 10-mL centrifuge tube, 3 mL each of 1st fluid for disintegration test of Japanese Pharmacopoeia (pH 1.2) was added respectively, and the mixture solutions were shaken for 24 hours at 37° C. After the shaking, the solutions were filtered, 1 mL of each filtrate was exactly pipeted, and 1 mL of acetonitrile was exactly added to obtain a sample solution.
The sample solutions were analyzed by using HPLC technique with the following conditions and the concentration of the compound in the sample solution was determined by comparing it with that of a standard solution having an already known concentration under the following HPLC conditions, to determine the solubility.
The same test was performed with 2nd fluid for disintegration test of Japanese Pharmacopoeia (pH 6.8), to determine the solubility.
Detector: Ultraviolet absorption spectrometer (wavelength: 235 nm)
Mobile phase: 50 mmol/L sodium dihydrogen phosphate/acetonitrile (55:45)
Column: YMC-Pack Pro C18, internal diameter: 4.6 mm, length: 15 cm (YMC Corporation)
Column temperature: 40° C.

| SMILES | Prostaglandin production suppressing effect (prostaglandin production) | Leukotriene production suppressing effect (leukotriene production) | Suppression of footpad edema in rat adjuvant arthritis [1] | Water content [2] | Solubility of type A crystal relative to type B crystal ([3]; 1st fluid (pH 1.2) and 2nd fluid (pH 6.8)) | Solubility to 1st fluid for disintegration test of Japanese Pharmacopoeia (pH 1.2) [3] | Solubility to 2nd fluid for disintegration test of Japanese Pharmacopoeia (pH 6.8) [3] |
| --- | --- | --- | --- | --- | --- | --- | --- |
| Cn1ncc2cc(-c3cc(CCC(=O)O)cc(N)c3OC3Cc4ccccc4C3)ccc21 [Compound 1, 3-[3-amino-4-(indan-2-yloxy)-5-(1-methyl-1H-indazol-5-yl)phenyl]propionic acid] | prostaglandin production suppressing effect | leukotriene production suppressing effect |  |  |  |  |  |
| Cn1ncc2cc(-c3cc(CCC(=O)O)cc(N)c3OC3Cc4ccccc4C3)ccc21 [Type A crystal, 3-[3-amino-4-(indan-2-yloxy)-5-(1-methyl-1H-indazol-5-yl)phenyl]propionic acid] |  |  | suppressed footpad edema | 52.5% | three-fold greater | 0.03 mg/mL | 0.06 mg/mL |
| Cn1ncc2cc(-c3cc(CCC(=O)O)cc(N)c3OC3Cc4ccccc4C3)ccc21 [Type B crystal, 3-[3-amino-4-(indan-2-yloxy)-5-(1-methyl-1H-indazol-5-yl)phenyl]propionic acid] |  |  | suppressed footpad edema | 39.3% |  | 0.01 mg/mL | 0.02 mg/mL |
